In a compilation of properties of binary mixtures (doi:10.1021/acs.jpcb.5b11900):

Assay: xn = mol fraction of the nth substance listed
Settings: 101 kPa

CC[NH+](CC)CC.O=[N+]([O-])[O-] + CC[NH3+].O=[N+]([O-])[O-]
Settings	electrical conductivity [S/m]	viscosity [mPa·s]
293.15 K, x1 = 0.0499	1.67	46.6
293.15 K, x1 = 0.0999	1.45	51.2
293.15 K, x1 = 0.3995	0.71	90.2
293.15 K, x1 = 0.4472	0.62	100
293.15 K, x1 = 0.5003	0.56	108.1
293.15 K, x1 = 0.5485	0.56	105.4
298.15 K, x1 = 0.0499	1.96	39
298.15 K, x1 = 0.0999	1.71	42.5
298.15 K, x1 = 0.1997	1.36	51.1
298.15 K, x1 = 0.25	1.16	56.2
298.15 K, x1 = 0.2993	1.02	62.4
298.15 K, x1 = 0.3475	0.95	66.9
298.15 K, x1 = 0.3995	0.85	71.8
298.15 K, x1 = 0.4472	0.75	79.3
298.15 K, x1 = 0.5003	0.68	85.2
298.15 K, x1 = 0.5485	0.68	83.1
303.15 K, x1 = 0.0499	2.27	32.9
303.15 K, x1 = 0.0999	1.99	35.7
303.15 K, x1 = 0.149	1.77	37.9
303.15 K, x1 = 0.1997	1.59	42.5
303.15 K, x1 = 0.25	1.36	46.5
303.15 K, x1 = 0.2993	1.2	51.4
303.15 K, x1 = 0.3995	1.01	58.5
303.15 K, x1 = 0.4472	0.9	64.3
303.15 K, x1 = 0.5003	0.82	68.8
303.15 K, x1 = 0.5485	0.81	67
308.15 K, x1 = 0.0499	2.6	28.1
308.15 K, x1 = 0.0999	2.29	30.3
308.15 K, x1 = 0.149	2.05	32.1
308.15 K, x1 = 0.1997	1.84	35.7
308.15 K, x1 = 0.25	1.58	39
308.15 K, x1 = 0.2993	1.4	42.8
308.15 K, x1 = 0.3475	1.31	45.4
308.15 K, x1 = 0.3995	1.18	48.3
308.15 K, x1 = 0.4472	1.06	52.8
308.15 K, x1 = 0.5003	0.96	56.3
308.15 K, x1 = 0.5485	0.96	54.7
313.15 K, x1 = 0.0499	2.96	24.1
313.15 K, x1 = 0.0999	2.61	26
313.15 K, x1 = 0.149	2.35	27.7
313.15 K, x1 = 0.1997	2.12	30.7
313.15 K, x1 = 0.25	1.81	33
313.15 K, x1 = 0.2993	1.63	36.1
313.15 K, x1 = 0.3475	1.52	38.5
313.15 K, x1 = 0.5003	1.13	47.1
313.15 K, x1 = 0.5485	1.12	45.8
318.15 K, x1 = 0.0499	3.33	21
318.15 K, x1 = 0.0999	2.95	22.6
318.15 K, x1 = 0.149	2.66	23.7
318.15 K, x1 = 0.1997	2.41	26
318.15 K, x1 = 0.25	2.07	28.2
318.15 K, x1 = 0.2993	1.86	30.6
318.15 K, x1 = 0.3475	1.74	32.3
318.15 K, x1 = 0.3995	1.58	34.1
318.15 K, x1 = 0.4472	1.41	36.9
318.15 K, x1 = 0.5003	1.3	39.1
318.15 K, x1 = 0.5485	1.29	37.9
323.15 K, x1 = 0.0499	3.73	18.4
323.15 K, x1 = 0.149	2.99	20.6
323.15 K, x1 = 0.1997	2.71	22.5
323.15 K, x1 = 0.25	2.34	24.2
323.15 K, x1 = 0.2993	2.11	26.3
323.15 K, x1 = 0.3475	1.97	27.6
323.15 K, x1 = 0.4472	1.61	31.3
323.15 K, x1 = 0.5485	1.48	32.1
328.15 K, x1 = 0.0499	–	16.3
328.15 K, x1 = 0.0999	–	17.3
328.15 K, x1 = 0.1997	–	19.7
328.15 K, x1 = 0.25	–	21
328.15 K, x1 = 0.2993	–	22.8
328.15 K, x1 = 0.3475	–	23.9
328.15 K, x1 = 0.4472	–	26.9
333.15 K, x1 = 0.0499	–	14.4
333.15 K, x1 = 0.0999	–	15.3
333.15 K, x1 = 0.149	–	16.1
333.15 K, x1 = 0.25	–	18.4
333.15 K, x1 = 0.2993	–	19.9
333.15 K, x1 = 0.3475	–	21
333.15 K, x1 = 0.3995	–	22
333.15 K, x1 = 0.4472	–	23.5
338.15 K, x1 = 0.0499	–	12.9
338.15 K, x1 = 0.0999	–	13.7
338.15 K, x1 = 0.149	–	14.2
338.15 K, x1 = 0.1997	–	15.2
338.15 K, x1 = 0.25	–	16.3
338.15 K, x1 = 0.3475	–	18.2
338.15 K, x1 = 0.3995	–	19
338.15 K, x1 = 0.5003	–	21.2
338.15 K, x1 = 0.5485	–	20.5
343.15 K, x1 = 0.0999	–	12.3
343.15 K, x1 = 0.149	–	12.7
343.15 K, x1 = 0.1997	–	13.5
343.15 K, x1 = 0.25	–	14.5
343.15 K, x1 = 0.3475	–	16.1
343.15 K, x1 = 0.3995	–	16.8
343.15 K, x1 = 0.4472	–	17.8
343.15 K, x1 = 0.5003	–	19.3
343.15 K, x1 = 0.5485	–	17.9
348.15 K, x1 = 0.0499	–	10.5
348.15 K, x1 = 0.149	–	11.4
348.15 K, x1 = 0.1997	–	12.1
348.15 K, x1 = 0.25	–	13
348.15 K, x1 = 0.3475	–	14.3
348.15 K, x1 = 0.3995	–	14.9
353.15 K, x1 = 0.0999	–	9.6
353.15 K, x1 = 0.149	–	10.4
353.15 K, x1 = 0.1997	–	11
353.15 K, x1 = 0.25	–	11.7
353.15 K, x1 = 0.3475	–	13
353.15 K, x1 = 0.3995	–	13.5
353.15 K, x1 = 0.4472	–	14.2
